Measurements published in patent publication US20160046618A1, “Cyclopropyl Fused Thiazin-2-Amine Compounds as Beta-Secretase Inhibitors and Methods of Use” (AMGEN INC., priority 2014, published 2016).
Where two headings read alike, the source gives them in different places. Each block holds one molecule with its values, some of them ahead of it.

Legend:
Aβ 40 in rat CSF = test: In vivo inhibition of beta-secretase: Aβ40 reduction in rat CSF; settings: after 4 h
Text: (§1) In Vivo Inhibition of Beta-Secretase
Several animal models, including mouse, rat, dog, and monkey, may be used to screen for inhibition of beta-secretase activity in vivo following administration of a test compound sample. Animals used in this invention can be wild type, transgenic, or gene knockout animals. For example, the Tg2576 mouse model, prepared and conducted as described in Hsiao et al., 1996, Science 274, 99-102, and other non-transgenic or gene knockout animals are useful to analyze in vivo inhibition of Amyloid beta peptide (Abeta) production in the presence of inhibitory test compounds. Generally, 2 to 18 month old Tg2576 mice, gene knockout mice or non-transgenic animals are administered test compounds formulated in vehicles, such as cyclodextran, phosphate buffers, hydroxypropyl methylcellulose or other suitable vehicles. One to twenty-four hours following the administration of compound, animals are sacrificed, and brains as well as cerebrospinal fluid (CSF) and plasma are removed for analysis of A-beta levels and drug or test compound concentrations (Dovey et al., 2001, Journal of Neurochemistry, 76,173-181) Beginning at time 0, animals are administered by oral gavage, or other means of delivery such as intravenous injection, an inhibitory test compound of up to 100 mg/kg in a standard, conventional formulation, such as 2% hydroxypropyl methylcellulose, 1% Tween80. A separate group of animals receive 2% hydroxypropyl methylcellulose, 1% Tween80 alone, containing no test compound, and serve as a vehicle-control group. At the end of the test period, animals are sacrificed and brain tissues, plasma or cerebrospinal fluid are collected. […] Homogenates are centrifuged at 355,000 g, 4° C. for 30 minutes. CSF or brain supernatants are then analyzed for the presence of A-beta peptide by specific sandwich ELISA assays based on ECL (Electrochemiluminescence) technology. For example, rat Abeta40 is measured using biotinylated-4G8 (Signet) as a capture antibody and Fab40 (an in-house antibody specific to the C-terminal of Abeta40) as a detection antibody. For example, 4 hours after administration of 30 mg/kg oral dose of the test compound in 2% hydroxypropyl methylcellulose, 1% Tween80 (pH2.2) to 200 g male Sprague Dawley rats, amyloid beta peptide levels are measured for reduction by X % and Y % in cerebrospinal fluid and brain, respectively, when compared to the levels measured in the vehicle-treated or control mice.
(§2) Actual vehicles used: Oral: 2% HPMC, 1% Tween80, pH 2.2
The compounds of the invention may be shown to reduce the formation and/or deposition of amyloid beta peptide in the cerebrospinal fluid (CSF) as well as in the brain of a mouse or rat at either 3 mpk, 10 mpk or 30 mpk (mpk=mg compound per kg weight of the animal) dosing concentrations after 4 h.

[1] = system: Aβ40 in conditioned medium of cells stably expressing Amyloid Precursor Protein (APP); test: In vitro BACE-1 cell-based assay (Aβ40 sandwich ELISA); settings: read-out: IC50 IP (μM) BACE1 cell
In short: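 APP-expressing cells treated 24 h at 37 °C with compound in 10-point dose response (top 100 μM or 10 μM, 0.1% DMSO final). Secreted Aβ40 in conditioned medium quantified by sandwich ELISA (pAb40 capture, biotinylated 6E10 detection, time-resolved europium fluorescence); IC50 from percent inhibition versus concentration.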

human recombinant BACE1 = human recombinant BACE1 (Homo sapiens (Human), UniProt P56817); test: In vitro enzymatic BACE1 FRET assay; type: biochemical; settings: read-out: IC50 IP (μM) BACE1 enzyme
Sequence of human recombinant BACE1 (P56817 46-501): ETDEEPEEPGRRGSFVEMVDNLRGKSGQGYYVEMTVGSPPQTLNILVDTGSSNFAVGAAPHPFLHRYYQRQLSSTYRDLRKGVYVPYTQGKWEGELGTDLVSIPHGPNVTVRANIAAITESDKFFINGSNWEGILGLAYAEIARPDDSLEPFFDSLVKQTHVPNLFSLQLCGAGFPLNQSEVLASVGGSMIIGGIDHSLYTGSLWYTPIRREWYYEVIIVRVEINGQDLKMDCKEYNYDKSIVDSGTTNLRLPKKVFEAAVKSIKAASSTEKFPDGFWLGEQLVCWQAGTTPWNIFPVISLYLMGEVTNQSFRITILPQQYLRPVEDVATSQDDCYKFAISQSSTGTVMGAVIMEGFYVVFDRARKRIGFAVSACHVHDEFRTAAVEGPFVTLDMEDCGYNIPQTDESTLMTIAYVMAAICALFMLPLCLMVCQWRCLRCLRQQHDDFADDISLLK
In short: (§3)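 Ni-NTA-purified recombinant protease incubated with compound; reaction started with 50 nM FRET peptide substrate (fluorophore/quencher flanking the BACE cleavage site) and run 1 h. Stopped with Tris buffer raising pH to neutral; fluorescence read at ex 488/em 590 nm.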

Aβ 40 in rat brain = test: In vivo inhibition of beta-secretase: Aβ40 reduction in rat brain; settings: after 4 h
Text: as §1
Several animal models, including mouse, rat, dog, and monkey, may be used to screen for inhibition of beta-secretase activity in vivo following administration of a test compound sample. Animals used in this invention can be wild type, transgenic, or gene knockout animals. […] One to twenty-four hours following the administration of compound, animals are sacrificed, and brains as well as cerebrospinal fluid (CSF) and plasma are removed for analysis of A-beta levels and drug or test compound concentrations (Dovey et al., 2001, Journal of Neurochemistry, 76,173-181) Beginning at time 0, animals are administered by oral gavage, or other means of delivery such as intravenous injection, an inhibitory test compound of up to 100 mg/kg in a standard, conventional formulation, such as 2% hydroxypropyl methylcellulose, 1% Tween80. A separate group of animals receive 2% hydroxypropyl methylcellulose, 1% Tween80 alone, containing no test compound, and serve as a vehicle-control group. At the end of the test period, animals are sacrificed and brain tissues, plasma or cerebrospinal fluid are collected. […] Homogenates are centrifuged at 355,000 g, 4° C. for 30 minutes. CSF or brain supernatants are then analyzed for the presence of A-beta peptide by specific sandwich ELISA assays based on ECL (Electrochemiluminescence) technology. For example, rat Abeta40 is measured using biotinylated-4G8 (Signet) as a capture antibody and Fab40 (an in-house antibody specific to the C-terminal of Abeta40) as a detection antibody.
as §2

Recombinant Cat D = Recombinant Cat D (Homo sapiens (Human), UniProt P07339); test: In vitro enzymatic Cathepsin D (Cat D) FRET assay; type: biochemical; settings: read-out: IC50 IP (μM) CatD
Sequence of Recombinant Cat D (P07339 65-412): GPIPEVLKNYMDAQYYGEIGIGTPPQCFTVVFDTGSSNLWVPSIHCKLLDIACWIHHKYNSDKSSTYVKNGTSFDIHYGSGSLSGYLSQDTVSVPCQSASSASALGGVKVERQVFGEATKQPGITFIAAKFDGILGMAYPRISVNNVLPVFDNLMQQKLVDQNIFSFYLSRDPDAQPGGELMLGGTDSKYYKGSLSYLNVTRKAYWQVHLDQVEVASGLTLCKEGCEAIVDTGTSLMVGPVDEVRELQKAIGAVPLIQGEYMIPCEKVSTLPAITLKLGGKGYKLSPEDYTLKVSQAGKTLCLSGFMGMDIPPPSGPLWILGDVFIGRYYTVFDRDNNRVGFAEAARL
In short: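 Recombinant Cat D expressed in CHO cells, assayed in 0.05 M citrate pH 3.5 with 5 mM CHAPS and 10% DMSO final. Reaction started with 20 nM FRET peptide substrate, incubated one hour, then stopped by Tris buffer to neutral pH; fluorescence read at ex 500/em 580 nm.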

human recombinant BACE2 = human recombinant BACE2 (Homo sapiens (Human), UniProt Q9Y5Z0); test: In vitro enzymatic BACE2 FRET assay; type: biochemical; settings: read-out: IC50 IP (μM) BACE2 enzyme
Sequence of human recombinant BACE2 (Q9Y5Z0 63-518): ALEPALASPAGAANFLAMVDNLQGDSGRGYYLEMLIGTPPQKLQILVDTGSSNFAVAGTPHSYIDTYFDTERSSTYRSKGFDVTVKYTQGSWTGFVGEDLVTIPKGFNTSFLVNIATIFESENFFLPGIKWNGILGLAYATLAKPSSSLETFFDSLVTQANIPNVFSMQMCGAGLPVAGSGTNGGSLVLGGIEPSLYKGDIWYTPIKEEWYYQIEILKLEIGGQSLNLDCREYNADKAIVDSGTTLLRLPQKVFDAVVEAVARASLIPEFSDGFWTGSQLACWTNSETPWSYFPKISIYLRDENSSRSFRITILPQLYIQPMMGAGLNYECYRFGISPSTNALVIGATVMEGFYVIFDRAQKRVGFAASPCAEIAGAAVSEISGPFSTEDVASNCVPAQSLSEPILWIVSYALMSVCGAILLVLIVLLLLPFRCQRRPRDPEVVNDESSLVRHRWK
In short: as §3

IC50 ([1]; BACE1 cell-based assay): 0.00082 µM
SMILES: C#CCOc1cnc(C(=O)Nc2cc(F)c(F)c([C@@]3(C)N=C(N)S[C@@]4(COC)C[C@H]43)c2)cn1 [Example 72, N-(3-((1S,5S,6S)-3-amino-1-(methoxymethyl)-5-methyl-2-thia-4-azabicyclo[4.1.0]hept-3-en-5-yl)-4,5-difluorophenyl)-5-(2-propyn-1-yloxy)-2-pyrazinecarboxamide]
% Aβ 40 reduction in rat CSF at 10 mpk (Aβ 40 in rat CSF): 85%

SMILES: C#CCOc1cnc(C(=O)Nc2cc(F)c(F)c([C@@]3(C)N=C(N)S[C@@]4(C(F)F)C[C@@H]34)c2)cn1 [Example 807, N-(3-((1S,5S,6S)-3-amino-1-(difluoromethyl)-5-methyl-2-thia-4-azabicyclo[4.1.0]hept-3-en-5-yl)-4,5-difluorophenyl)-5-(2-propyn-1-yloxy)-2-pyrazinecarboxamide]
% Aβ 40 reduction in rat CSF (3 mpk) (Aβ 40 in rat CSF): 80 (3 mpk) %

IC50 ([1]; BACE1 cell-based assay): 0.0213 µM
IC50 (human recombinant BACE1; BACE1 FRET enzyme assay): 0.0107 µM
IC50 (Recombinant Cat D; Cathepsin D FRET enzyme assay): > 133 µM
SMILES: N#Cc1cnc2c(Nc3cc(F)c(F)c([C@@]4(CF)N=C(N)S[C@H]5C[C@H]54)c3)nccc2c1 [Example 26, 8-((3-((1S,5S,6S)-3-amino-5-(fluoromethyl)-2-thia-4-azabicyclo[4.1.0]hept-3-en-5-yl)-4,5-difluorophenyl)amino)-1,7-naphthyridine-3-carbonitrile]
% Aβ 40 reduction in rat CSF at 10 mpk (Aβ 40 in rat CSF): 38%
% Aβ 40 reduction in rat brain at 10 mpk (Aβ 40 in rat brain): 34%

SMILES: C#CCOc1cnc(C(=O)Nc2cc(F)c(F)c([C@@]3(C)N=C(N)S[C@@]4(CF)C[C@H]43)c2)cn1 [Example 810, N-(3-((1S,5S,6S)-3-amino-1-(fluoromethyl)-5-methyl-2-thia-4-azabicyclo[4.1.0]hept-3-en-5-yl)-4,5-difluorophenyl)-5-(prop-2-yn-1-yloxy)pyrazine-2-carboxamide]
% Aβ 40 reduction in rat CSF (3 mpk) (Aβ 40 in rat CSF): 79 (3 mpk) %
% Aβ 40 reduction in rat brain (3 mpk) (Aβ 40 in rat brain): 74 (3 mpk) %

IC50 (human recombinant BACE2; BACE2 FRET enzyme assay): 0.0497 µM
IC50 ([1]; BACE1 cell-based assay): 0.0204 µM
IC50 (Recombinant Cat D; Cathepsin D FRET enzyme assay): 466 µM
SMILES: N#Cc1cnc2c(Nc3cc(F)c(F)c([C@@]4(CF)N=C(N)S[C@H]5C[C@H]54)c3)ncnc2c1 [Example 28, 4-((3-((1S,5S,6S)-3-amino-5-(fluoromethyl)-2-thia-4-azabicyclo[4.1.0]hept-3-en-5-yl)-4,5-difluorophenyl)amino)pyrido[3,2-d]pyrimidine-7-carbonitrile]
% Aβ 40 reduction in rat CSF at 10 mpk (Aβ 40 in rat CSF): 42%
% Aβ 40 reduction in rat brain at 10 mpk (Aβ 40 in rat brain): 26%

IC50 ([1]; BACE1 cell-based assay): 0.0164 µM
IC50 (human recombinant BACE1; BACE1 FRET enzyme assay): 0.0696 µM
IC50 (Recombinant Cat D; Cathepsin D FRET enzyme assay): 1840 µM
SMILES: COc1cnc(C(=O)Nc2ccc(F)c([C@@]3(CF)N=C(N)S[C@H]4C[C@H]43)c2)cn1 [Example 4, N-(3-((1S,5S,6S)-3-amino-5-(fluoromethyl)-2-thia-4-azabicyclo[4.1.0]hept-3-en-5-yl)-4-fluorophenyl)-5-methoxy-2-pyrazinecarboxamide]
% Aβ 40 reduction in rat CSF at 10 mpk (Aβ 40 in rat CSF): 40%
% Aβ 40 reduction in rat brain at 10 mpk (Aβ 40 in rat brain): 18%

SMILES: COC[C@]12C[C@H]1[C@@](C)(c1cc(NC(=O)c3cnc(OCC(F)(F)F)cn3)cc(F)c1F)N=C(N)S2 [Example 815, N-(3-((1S,5S,6S)-3-amino-1-(methoxymethyl)-5-methyl-2-thia-4-azabicyclo[4.1.0]hept-3-en-5-yl)-4,5-difluorophenyl)-5-(2,2,2-trifluoroethoxy)-2-pyrazinecarboxamide]
% Aβ 40 reduction in rat CSF at 10 mpk (Aβ 40 in rat CSF): 50%

SMILES: C[C@]1(c2cc(NC(=O)c3ccc(Cl)cn3)cc(F)c2F)N=C(N)S[C@@]2(CF)C[C@H]21 [Example 12, N-(3-((1S,5S,6S)-3-amino-1-(fluoromethyl)-5-methyl-2-thia-4-azabicyclo[4.1.0]hept-3-en-5-yl)-4,5-difluorophenyl)-5-chloropicolinamide]
% Aβ 40 reduction in rat CSF at 10 mpk (Aβ 40 in rat CSF): 75%

IC50 [1]: 0.000687 µM
SMILES: [2H]C([2H])([2H])OC[C@]12C[C@H]1[C@@](C)(c1cc(NC(=O)c3cnc(OCC#C)cn3)cc(F)c1F)N=C(N)S2 [Example 969, N-(3-((1S,5S,6S)-3-amino-5-methyl-1-(((trideuterium)methyloxy)methyl)-2-thia-4-azabicyclo[4.1.0]hept-3-en-5-yl)-4,5-difluorophenyl)-5-(2-propyn-1-yloxy)-2-pyrazinecarboxamide]
% Aβ 40 reduction in rat CSF (3 mpk) (Aβ 40 in rat CSF): 79 (3 mpk) %
% Aβ 40 reduction in rat brain (3 mpk) (Aβ 40 in rat brain): 79 (3 mpk) %

SMILES: C[C@]1(c2cc(NC(=O)c3ccc(Cl)cn3)cc(F)c2F)N=C(N)S[C@H]2C[C@H]21 [Example 6, N-(3-((1S,5S,6S)-3-amino-5-methyl-2-thia-4-azabicyclo[4.1.0]hept-3-en-5-yl)-4,5-difluorophenyl)-5-chloro-2-pyridinec arboxamide]
% Aβ 40 reduction in rat CSF at 10 mpk (Aβ 40 in rat CSF): 78%

IC50 ([1]; BACE1 cell-based assay): 0.024 µM
SMILES: NC1=N[C@](CF)(c2cc(Nc3ncnc4cc(Cl)cnc34)ccc2F)[C@H]2C[C@@H]2S1 [Example 39, N-(3-((1S,5S,6S)-3-amino-5-(fluoromethyl)-2-thia-4-azabicyclo[4.1.0]hept-3-en-5-yl)-4-fluorophenyl)-7-chloropyrido[3,2-d]pyrimidin-amine]
% Aβ 40 reduction in rat CSF at 10 mpk (Aβ 40 in rat CSF): 50%
% Aβ 40 reduction in rat brain at 10 mpk (Aβ 40 in rat brain): 23%

IC50 (human recombinant BACE2): 0.0358 µM
IC50 [1]: 0.00181 µM
IC50 (human recombinant BACE1): 0.000974 µM
IC50 (Recombinant Cat D): 123 µM
SMILES: COC[C@]12C[C@H]1[C@@](C)(c1cc(Nc3ncnc4cc(OCc5ncco5)cnc34)cc(F)c1F)N=C(N)S2 [Example 809, N-(3-((1S,5S,6S)-3-amino-1-(methoxymethyl)-5-methyl-2-thia-4-azabicyclo[4.1.0]hept-3-en-5-yl)-4,5-difluorophenyl)-7-(1,3-oxazol-2-ylmethoxy)pyrido[3,2-d]pyrimidin-4-amine]

IC50 (human recombinant BACE2): < 0.00203 µM
IC50 [1]: 0.000378 µM
IC50 (human recombinant BACE1): 0.000393 µM
IC50 (Recombinant Cat D): 12.9 µM
SMILES: C#CCOc1cnc(C(=O)Nc2cc(F)c(F)c([C@@]3(C)N=C(N)S[C@@]4(C(=O)N5CCCC5)C[C@H]43)c2)cn1 [Example 934, N-(3-((1S,5S,6S)-3-amino-5-methyl-1-(1-pyrrolidinylcarbonyl)-2-thia-4-azabicyclo[4.1.0]hept-3-en-5-yl)-4,5-difluorophenyl)-5-(2-propyn-1-yloxy)-2-pyrazinecarboxamide]
